In the Kinase Knowledgebase extract (Sharma et al. 2016):

Each compound was assayed against MAPK14 (human) (UniProt Q16539) (assay: Inhibition of MAPK14 Kinase Activity).
Chain of MAPK14 (human) (Q16539 whole entry, looked up): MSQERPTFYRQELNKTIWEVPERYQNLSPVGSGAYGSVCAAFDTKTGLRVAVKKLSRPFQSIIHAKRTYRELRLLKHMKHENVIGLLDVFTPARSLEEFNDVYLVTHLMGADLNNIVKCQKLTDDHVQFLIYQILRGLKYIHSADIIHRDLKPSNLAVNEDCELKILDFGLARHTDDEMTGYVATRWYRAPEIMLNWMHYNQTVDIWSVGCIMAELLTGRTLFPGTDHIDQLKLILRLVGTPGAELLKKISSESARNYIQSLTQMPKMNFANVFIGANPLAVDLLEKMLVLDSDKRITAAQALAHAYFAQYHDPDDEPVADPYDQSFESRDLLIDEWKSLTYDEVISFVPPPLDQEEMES
For `Cc1ccccc1-c1ncnc2c1[nH]c(=O)n2-c1c(F)cccc1F`, the IC50 was 0.5 µM. For `COc1ccc(-n2c(=O)[nH]c3c(-c4ccccc4C)ncnc32)c(OC)c1`, the IC50 was 5.2 µM. With `Cc1cccc(C)c1-n1c(=O)[nH]c2c(-c3ccccc3Cl)ncnc21` the IC50 was 7.8 µM. For `O=c1[nH]c2c(-c3ccccc3F)ncnc2n1-c1c(F)cccc1F`, the IC50 was 7.8 µM. `O=c1[nH]c2c(-c3ccccc3Cl)ncnc2n1-c1ccc(F)cc1F` gave an IC50 of 2.7 µM. Work on `Cc1ccccc1-c1ncnc2c1[nH]c(=O)n2-c1ccc(F)cc1F` yielded an IC50 of 1.6 µM. With `Cc1ccccc1-c1ncnc2c1[nH]c(=O)n2-c1c(C)cccc1C` the IC50 was 18.1 µM. For `O=c1[nH]c2c(-c3ccccc3)ncnc2n1-c1c(F)cccc1F`, the IC50 was 17.5 µM. With `Cc1ccccc1-c1ncnc2c1[nH]c(=S)n2-c1c(C)cccc1C` the IC50 was 100 µM. `O=c1[nH]c2c(-c3ccccc3Cl)ncnc2n1-c1c(F)cccc1F` gave an IC50 of 0.9 µM.
